In patent US9387221B2, “SDF-1 binding nucleic acids and the use thereof in cancer treatment” (NOXXON Pharma AG, priority 2010, dated 2016):

Experiments:
CXCR4 [1] = molecular target: CXCR4 (Mus musculus, UniProt P70658); conditions: GBM mouse xenograft, irradiation; cited from earlier work
CXCR4 [2] = molecular target: CXCR4 (Homo sapiens, UniProt P61073); conditions: MM cells in vivo, CXCR4 blockade; cited from earlier work
RPMI-8226 MM cells = experiment: Chemosensitization coculture of RPMI-8226 MM cells with stromal MS-5 cells; format: cell-based; conditions: 100 nM NOX-A12, 1 μM F-ara-A, 40 hours
Description: In order to mimic the in vivo interaction of the BM microenvironment with leukemia cells, an in vitro coculture system with murine BM stromal MS-5 cells and the multiple myeloma (abbr. MM) cell line RPMI 8226 was established. Aim of the experiment was to show whether SDF-1 binding […] NOX-A12 sensitizes MM cells in coculture with stromal cells to effects of chemotherapeutic agents. Stromal MS-5 cells secreting SDF 1 were incubated with SDF-1 binding […] NOX-A12 or the non-functional revNOX-A12. The MM cell line RPMI-8226 was added to the confluent stromal cell layer. The cells were then incubated with the chemotherapeutic agent F ara A (Fludarabine) for 40 hours. Cell Viability viability was measured. The murine stromal cell line MS-5 (ACC 441) was purchased from the DSMZ, the Multiple Myeloma cell line RPMI8226 (CCL-155) was purchased from the ATCC. The Multiple Myeloma cell line RPMI8226 was maintained in RPMI medium 1640 GlutaMAX (Invitrogen) supplemented with 10% FBS (Biochrom) and penicillin-streptomycin, the MS-5 cells were cultured in MEM alpha GlutaMAX (Invitrogen) with 10% FBS and penicillin-streptomycin. […] Cell viability and cell number were determined by Flow Cytometry using the Guava EasyCyte 6HT/2L (Millipore).

stromal MS-5 cells = experiment: Viability of stromal MS-5 cells in the coculture; format: cell-based, murine; conditions: data not shown
Description: The murine stromal cell line MS-5 (ACC 441) was purchased from the DSMZ, the Multiple Myeloma cell line RPMI8226 (CCL-155) was purchased from the ATCC. The Multiple Myeloma cell line RPMI8226 was maintained in RPMI medium 1640 GlutaMAX (Invitrogen) supplemented with 10% FBS (Biochrom) and penicillin-streptomycin, the MS-5 cells were cultured in MEM alpha GlutaMAX (Invitrogen) with 10% FBS and penicillin-streptomycin. For chemosensitization coculture experiments stromal MS-5 cells were seeded the day before onto 24-well plates (the inner eight wells) at a concentration of 8×10^4/mL/well in MEM alpha GlutaMAX medium (+10% FBS) and incubated at 37° C. in 5% CO2. The confluent stromal cell layer was washed and 0.5 mL RPMI medium 1640 (+1% FBS) was added to the wells. SDF-1 binding […] NOX-A12 or revNOX-A12 was subsequently added to the wells to a final concentration of 100 nM and incubated for four hours. 3.5×10^5 RPMI8226 cells in RPMI medium 1640 (+1% FBS) were added to the stromal cell layer. Four hours later, 1 μ[…] (Sigma Aldrich) was added to the cells when indicated. After 40 hours of incubation the cells were collected in 15 mL tubes, first the supernatant was harvested and then the attached cells were trypsinized including MS-5 cells. […] Cell viability and cell number were determined by Flow Cytometry using the Guava EasyCyte 6HT/2L (Millipore).

Sequence of CXCR4 (Homo sapiens, UniProt P61073) (P61073 whole entry, species assumed): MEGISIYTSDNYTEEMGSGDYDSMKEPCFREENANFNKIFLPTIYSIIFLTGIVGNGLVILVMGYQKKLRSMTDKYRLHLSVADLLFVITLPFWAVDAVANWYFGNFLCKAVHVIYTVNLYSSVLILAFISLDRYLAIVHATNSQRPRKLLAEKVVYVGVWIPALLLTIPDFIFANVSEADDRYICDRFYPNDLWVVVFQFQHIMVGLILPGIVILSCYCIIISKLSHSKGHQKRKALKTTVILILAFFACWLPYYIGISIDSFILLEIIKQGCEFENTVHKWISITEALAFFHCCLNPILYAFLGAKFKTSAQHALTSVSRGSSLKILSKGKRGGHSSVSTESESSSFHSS
Sequence of CXCR4 (Mus musculus, UniProt P70658) (P70658 whole entry): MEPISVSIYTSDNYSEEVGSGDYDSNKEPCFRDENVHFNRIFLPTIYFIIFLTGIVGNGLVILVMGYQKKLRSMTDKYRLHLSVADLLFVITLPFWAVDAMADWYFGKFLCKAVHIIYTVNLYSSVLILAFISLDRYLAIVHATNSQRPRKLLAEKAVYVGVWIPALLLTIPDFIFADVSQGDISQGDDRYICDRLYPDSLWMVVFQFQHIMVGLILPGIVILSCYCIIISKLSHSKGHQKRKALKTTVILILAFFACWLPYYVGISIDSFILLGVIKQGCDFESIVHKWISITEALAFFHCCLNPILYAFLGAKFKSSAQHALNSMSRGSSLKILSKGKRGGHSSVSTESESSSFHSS

SMILES: c1cc(CN2CCCNCCNCCCNCC2)ccc1CN1CCCNCCNCCCNCC1 [AMD3100]
- influx of BMDCs in the irradiated tumor (CXCR4 [1]): prevented the influx of BMDCs in the irradiated tumor
- tumor reduction induced by bortezomib (CXCR4 [2]): enhanced tumor reduction induced by bortezomib

SMILES: Nc1nc(F)nc2c1ncn2[C@@H]1O[C@H](CO)[C@@H](O)[C@@H]1O [F-ara-A, Fludarabine, reference compound]
- cell viability of RPMI-8226 cells cocultured with stromal MS-5 cells (RPMI-8226 MM cells): no significant effect
- viability of stromal MS-5 cells (stromal MS-5 cells): neither affected
